We go through six compounds from patent publication US20240391931A1 (Bristol-Myers Squibb Company, priority 2021, published 2024).

What is called GI50 is the concentration that inhibits growth by half. A higher GI50 goes with lower sensitivity of the cells. As usually defined, the EC50 is the concentration that produces a half-maximal response. Low readings indicate an effect from little substance, high ones a need for much substance.

For one experiment, the system named is NCI-H1781 cells. The experiment is described as follows: Cellular proliferation in NCI-H1781 cells (CellTiter Glo). The class given is cell-based, human. As to conditions: 120 h, redosed after 72 h. The method, then:
(§1) In addition to the engineered cell lines, the following cell lines were used: BT474 (human breast carcinoma), N87 (human gastric carcinoma), NCI-H1781 (human lung adenocarcinoma), and A431 (human epidermoid carcinoma); all cell lines were obtained from the American Type Culture Collection (ATCC, Manassas, VA). NCI-H1781 were grown in complete RPMI 1640 (Life Technologies, Carlsbad, CA) supplemented with 15% fetal bovine serum (FBS, Life Technologies, Carlsbad, CA) and 1% Penicillin-Streptomycin (P/S, Life Technologies, Carlsbad, CA). N87 cells were grown in complete RPMI 1640 supplemented with 10% FBS and 1% P/S. BT474 and A431 cells were grown in DMEM (Life Technologies, Carlsbad, CA) supplemented with 10% FBS and 1% P/S. All cells were maintained and propagated in a humidified 5% CO2 incubator at 37° C.
(§2) Cell proliferation in adherent cells was investigated in two HER2 amplified cell lines (BT474, N87), and a HER2VC expressing cell line (NCI-H1781). BT474, NCI-H1781, and N87 were plated in their appropriate growth media supplemented with either 10% FBS (BT474, N87) or 15% FBS (NCI-H1781) and 1% P/S in 96-well white clear-bottom tissue culture plates (Costar, Sigma-Aldrich). The starting cell densities were 3500, 5500, and 5000 cells for BT474, NCI-H1781, and N87 cells, respectively. An 8-point standard curve with varying cell densities (starting at 50000 cells and serially diluting down 2-fold) was prepared for each cell line and read 6 h after plating. Cells were allowed to attach overnight prior to compound treatment. Compound solutions were prepared by serially diluting test compounds in DMSO (Sigma-Aldrich), then diluting 500× in their corresponding serum free media. Cells were treated by adding a 1:1 volume of test compound to a final concentration of […], 0.004, 0.0014, or 0.0005 μM, in 0.1% DMSO and 5% FBS (for BT474 and N87) or 7.5% FBS (NCI-H1781). In BT474 and NCI-H1781, cell media was replaced and cells were redosed with fresh test compound solutions after 72 h. Viability was determined by CellTiter Glo (Promega, Madison, WI) after 72 h for N87 cells, and after 120 h for BT474 and […] cells. The results were converted to cell numbers using a standard curve; growth inhibition (GI50 values) were determined by Graph Pad Prism. […] The results are provided in Table 4, under columns titled “BT474-GI50”, “N87-GI50”, and “NCI-H1781-GI50”.
In general terms: Cellular ATP, detected with luciferase, serves as a proxy for viable cell number.

A further experiment concerns N87 cells. As to the kind of experiment: Cellular proliferation in N87 cells (CellTiter Glo). The class given is cell-based, human. As to conditions: 72 h. Here is the method:
as §1, §2

For the next experiment, the target named is T1, HER2VC (G776delinsVC) (Homo sapiens, UniProt P04626, G776C/INS775V).
T1 construct: NCI-H1781 cells which endogenously expresses a HER2 mutant protein; endogenous in cells; host or cells: NCI-H1781
T1 sequence (P04626 with tags, fused parts or gaps INS775V/G776C): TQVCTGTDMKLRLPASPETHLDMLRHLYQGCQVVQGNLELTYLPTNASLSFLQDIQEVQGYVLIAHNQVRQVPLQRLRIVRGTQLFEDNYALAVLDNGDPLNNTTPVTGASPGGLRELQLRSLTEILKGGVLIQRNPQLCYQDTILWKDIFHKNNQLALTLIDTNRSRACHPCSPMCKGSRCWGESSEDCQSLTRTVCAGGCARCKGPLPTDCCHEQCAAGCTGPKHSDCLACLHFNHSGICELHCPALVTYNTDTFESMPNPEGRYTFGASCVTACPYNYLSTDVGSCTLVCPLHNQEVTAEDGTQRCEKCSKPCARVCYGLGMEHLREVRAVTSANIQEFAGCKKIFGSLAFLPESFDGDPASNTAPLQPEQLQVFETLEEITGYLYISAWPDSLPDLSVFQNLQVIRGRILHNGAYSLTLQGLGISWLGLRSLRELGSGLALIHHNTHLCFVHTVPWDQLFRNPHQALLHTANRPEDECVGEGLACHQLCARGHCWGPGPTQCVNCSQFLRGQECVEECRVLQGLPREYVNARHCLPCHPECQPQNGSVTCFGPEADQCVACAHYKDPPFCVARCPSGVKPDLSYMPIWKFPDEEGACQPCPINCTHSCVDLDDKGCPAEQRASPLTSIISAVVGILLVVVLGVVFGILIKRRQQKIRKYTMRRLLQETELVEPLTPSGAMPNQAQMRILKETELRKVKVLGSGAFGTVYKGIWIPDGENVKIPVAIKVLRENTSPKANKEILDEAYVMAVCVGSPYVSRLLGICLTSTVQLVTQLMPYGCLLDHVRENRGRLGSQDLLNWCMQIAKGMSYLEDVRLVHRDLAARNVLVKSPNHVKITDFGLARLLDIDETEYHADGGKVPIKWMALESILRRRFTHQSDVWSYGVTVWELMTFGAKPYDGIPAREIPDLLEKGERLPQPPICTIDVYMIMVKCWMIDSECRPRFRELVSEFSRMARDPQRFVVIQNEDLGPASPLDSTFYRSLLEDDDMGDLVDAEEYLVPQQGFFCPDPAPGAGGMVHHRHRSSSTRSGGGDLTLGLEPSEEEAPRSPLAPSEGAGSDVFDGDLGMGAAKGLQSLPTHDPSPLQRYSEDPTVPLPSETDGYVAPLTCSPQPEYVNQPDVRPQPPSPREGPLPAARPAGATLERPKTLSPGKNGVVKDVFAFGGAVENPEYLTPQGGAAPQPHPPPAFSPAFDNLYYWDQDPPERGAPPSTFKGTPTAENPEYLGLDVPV
The experiment is described as follows: HER2 signaling (pHER2) in NCI-H1781 cells. The class given is cell-based. The following applies: 1.5 hr compound, 1% FBS. Here is the method:
as §1
HER2 signaling was assessed in BT474 and N87 cell lines which endogenously overexpress the HER2 wildtype (WT) protein, in NCI-H1781 cells which endogenously expresses a HER2 mutant protein containing a VC insertion in the kinase domain (HER2VC or G776delinsVC), and in engineered cell lines transduced to express the Her2 mutant protein containing the YVMA insertion (Hek293-HER2YVMA and BEAS2B-HER2YVMA).
BT474, N87, and NCI-H1781 were plated in 96-well tissue-culture treated plates (Corning Costar, Sigma-Aldrich) in full media and incubated overnight. Hek293-HER2YVMA and BEAS2B-HER2YVMA cells were plated in 96-well poly-D-lysine treated plates (BD Bioscience, San Jose, CA). For treatment with test compounds, the media was replaced with corresponding low serum media (1% FBS) containing test compound at 1.1, 0.37, 0.12, 0.041, 0.014, 0.005, 0.0014, 0.0005 μM or DMSO control (0.1%). Cells were incubated with compound for 1.5 hr at 37° C. After compound treatment, the media was removed and cells were lysed for 30 min on ice in complete MSD lysis buffer (prepared using MSD base lysis buffer (Meso-Scale Discovery) supplemented with cOmplete, EDTA-free Protease inhibitor cocktail (Roche), Phosphatase Inhibitor Cocktails 2 and 3 (Sigma-Aldrich), and 1 mM PMSF (Sigma-Aldrich)). Lysates were stored at −70° C. until further analysis.
HER2 signaling was evaluated using phospho (Tyr1248)/total ErbB2 whole cell lysate MSD plates (Meso-Scale Discovery, Gaithersburg, MD). The phospho HER2 signal was normalized to total HER2 for each sample; results are reported as % DMSO control. The normalized data was fitted using a sigmoidal curve analysis program (Graph Pad Prism version 6) with variable Hill slope to determine EC50 values.
The HER2 signaling results are provided in Table 4, under columns titled “BT474-pHER2 EC50”, “N87-pHER2 EC50”, and “NCI-H1781-pHER2 EC50”. Hek293-HER2YVMA ins fall under the heading “HEKYVMA-pHER2 EC50”, Ba/F3 HER2YVMA fall under the heading “Ba/F3 YVMA-pHER2 EC50” and BEAS2B-HER2YVMA fall under the heading “BEAS2B YVMA-pHER2 EC50”.

Another experiment relates to BT474 cells. The experiment is described as follows: Cellular proliferation in BT474 cells (CellTiter Glo). The class given is cell-based, human. The following applies: 120 h, redosed after 72 h. Here is the method: as §1, §2
Where [1] appears, read: Homo sapiens, NCI-H1781, NCI-H1781 cells.
[2] abbreviates: Homo sapiens, BT-474, BT474 cells.

As to `COc1ccc(Oc2ccc(Nc3ncnc4sc5c(c34)C(C)CN(C(=O)C=CCN(C)C)C5)cc2C)cn1` (single isomer, unassigned) [Compound 159], the GI50 is 100 to 350 nM with NCI-H1781 cells (setting [1]), under 100 nM with N87 cells (Homo sapiens) and under 100 nM with BT474 cells (setting [2]). At HER2VC (G776delinsVC), this compound had an EC50 of 100 to 350 nM.
For the compound `Cc1ccc(Oc2ccc(Nc3ncnc4sc5c(c34)CN(C(=O)C=CCN(C)C)C5C)cc2C)cn1` (single isomer, unassigned) [Compound 170], the values for the GI50 in the experiment on NCI-H1781 cells (NCI-H1781 cells), with N87 cells and in the experiment on BT474 cells (BT474 cells) were 350 to 1000 nM, 100 to 350 nM and 100 to 350 nM, respectively. Moreover, the 50% effective concentration (EC50) on HER2VC (G776delinsVC) lay in the range of 100 to 350 nM.
Regarding `COc1ccc(Oc2ccc(Nc3ncnc4sc5c(c34)CN(C(=O)/C=C/CN(C)C)C5)cc2C)cn1` [Compound 128, (E)-4-(dimethylamino)-1-(4-((4-((6-methoxypyridin-3-yl)oxy)-3-methylphenyl)amino)-5,7-dihydro-6H-pyrrolo[3′,4′:4,5]thieno[2,3-d]pyrimidin-6-yl)but-2-en-1-one], the GI50 with NCI-H1781 cells (setting [1]), in the experiment on N87 cells (Homo sapiens) and in the experiment with BT474 cells (setting [2]) was under 100 nM throughout. Moreover, at HER2VC (G776delinsVC), the EC50 is 100 to 350 nM.
On to `Cc1ccc(Oc2ccc(Nc3ncnc4sc5c(c34)CN(C(=O)/C=C/CN(C)C)C5)cc2Cl)cn1` [Compound 129, (E)-1-(4-((3-Chloro-4-((6-methylpyridin-3-yl)oxy)phenyl)amino)-5H-pyrrolo[3′,4′:4,5]thieno[2,3-d]pyrimidin-6(7H)-yl)-4-(dimethylamino)but-2-en-1-one], for which the concentration for 50% growth inhibition (GI50) with NCI-H1781 cells (setting [1]), with N87 cells (Homo sapiens) and in the experiment with BT474 cells (setting [2]) was under 100 nM in each case. This compound also returned a concentration for a half-maximal effect (EC50) at HER2VC (G776delinsVC) of under 100 nM.
Turning to `Cc1ccc(Oc2ccc(Nc3ncnc4sc5c(c34)CCN(C(=O)/C=C/CN3CCOCC3)C5)cc2C)cn1` [Compound 17, (E)-1-(4-((3-Methyl-4-((6-methylpyridin-3-yl)oxy)phenyl)amino)-5,6-dihydropyrido[4′,3′:4,5]thieno[2,3-d]pyrimidin-7(8H)-yl)-4-morpholinobut-2-en-1-one], the GI50 in the experiment on NCI-H1781 cells (setting [1]), with N87 cells (Homo sapiens) and with BT474 cells (setting [2]) was under 100 nM each time. This compound also came in with an EC50 at HER2VC (G776delinsVC) of under 100 nM.
As to `Cc1cc(Nc2ncnc3sc4c(c23)CCN(C(=O)/C=C/CN(C)C)C4)ccc1Oc1ccc(N(C)C)nc1` [Compound 158, (E)-4-(dimethylamino)-1-(4-((4-((6-(dimethylamino)pyridin-3-yl)oxy)-3-methylphenyl)amino)-5,8-dihydropyrido[4′,3′:4,5]thieno[2,3-d]pyrimidin-7(6H)-yl)but-2-en-1-one], the GI50 was under 100 nM with NCI-H1781 cells (Homo sapiens, NCI-H1781 cells); under 100 nM in the experiment on N87 cells (Homo sapiens); under 100 nM in the experiment with BT474 cells (setting [2]). The same compound displayed an EC50 on HER2VC (G776delinsVC) of under 100 nM.
